Drawing on ChEMBL document CHEMBL3045339, “Synthesis of benzoxazoles, benzothiazoles and benzimidazoles and evaluation of their antifungal, insecticidal and herbicidal activities” (1992), this text covers MIC and Activity for twelve molecules.

Holding throughout (assay type): functional
Experiment [1] deals with Escherichia coli. Nature of the experiment: Antibacterial activity against Escherichia coli after 48 hr.
For experiment [2], the system named is Pseudomonas aeruginosa. The experiment in a line: Antibacterial activity against Pseudomonas aeruginosa after 48 hr.
The subject of experiment [3] is Bacillus subtilis. The experiment in a line: Antibacterial activity against Bacillus subtilis after 48 hr.
The test system of experiment [4] is Chenopodium album. The experiment in a line: Herbicidal activity against Chenopodium album assessed as disease control at 1000 ppm treated in soil during 15 to 20 days relative to control.
Experiment [5] has as its system Pseudoperonospora cubensis. The experiment in a line: Antifungal activity against Pseudoperonospora cubensis after 7 days. Also noted: concentration or dose not given beside the values.
The test system of experiment [6] is Eleusine indica. The experiment in a line: Herbicidal activity against Eleusine indica assessed as disease control at 1000 ppm treated in soil during 15 to 20 days relative to control.
The test system of experiment [7] is Amaranthus viridis. The experiment in a line: Herbicidal activity against Amaranthus viridis assessed as disease control at 1000 ppm treated in foliage during 15 to 20 days relative to control.
Experiment [8] deals with Fusarium fujikuroi. Nature of the experiment: Antifungal activity against Fusarium fujikuroi after 7 days. The arrangement: concentration or dose not given beside the values.
The test system of experiment [9] is Eleusine indica. The experiment in a line: Herbicidal activity against Eleusine indica assessed as disease control at 1000 ppm treated in foliage during 15 to 20 days relative to control.
Experiment [10] concerns Xanthomonas axonopodis. The experiment in a line: Antibacterial activity against Xanthomonas axonopodis after 7 days. Also noted: concentration or dose not given beside the values.
The test system of experiment [11] is Amaranthus viridis. The experiment in a line: Herbicidal activity against Amaranthus viridis assessed as disease control at 1000 ppm treated in soil during 15 to 20 days relative to control.
The test system of experiment [12] is Cyperus compressus. Nature of the experiment: Herbicidal activity against Cyperus compressus assessed as disease control at 1000 ppm treated in paddy field during 15 to 20 days relative to control.
For experiment [13], the system named is Chenopodium album. The experiment in a line: Herbicidal activity against Chenopodium album assessed as disease control at 1000 ppm treated in foliage during 15 to 20 days relative to control.
Experiment [14] concerns Botrytis cinerea. Nature of the experiment: Antifungal activity against Botryotinia fuckeliana after 7 days. Also noted: concentration or dose not given beside the values.
Experiment [15] deals with Persicaria hydropiper. Nature of the experiment: Herbicidal activity against Persicaria hydropiper assessed as disease control at 1000 ppm treated in foliage during 15 to 20 days relative to control.
In experiment [16] the test system is Mycobacterium. Nature of the experiment: Antibacterial activity against Mycobacterium ovicum after 48 hr.
In experiment [17] the test system is Oryza sativa. The experiment in a line: Herbicidal activity against Oryza sativa assessed as disease control at 1000 ppm treated in paddy field during 15 to 20 days relative to control.
In experiment [18] the test system is Pyricularia oryzae. Nature of the experiment: Antifungal activity against Magnaporthe oryzae after 7 days. Also noted: concentration or dose not given beside the values.
The subject of experiment [19] is Echinochloa crus-galli. Nature of the experiment: Herbicidal activity against Echinochloa crus-galli (barnyard grass) assessed as disease control at 1000 ppm treated in paddy field during 15 to 20 days relative to control.
For experiment [20], the system named is Staphylococcus aureus. The experiment in a line: Antibacterial activity against Staphylococcus aureus after 48 hr.
The subject of experiment [21] is Echinochloa crus-galli. Nature of the experiment: Herbicidal activity against Echinochloa crus-galli (barnyard grass) assessed as disease control at 1000 ppm treated in soil during 15 to 20 days relative to control.
Experiment [22] relates to Persicaria hydropiper. The experiment in a line: Herbicidal activity against Persicaria hydropiper assessed as disease control at 1000 ppm treated in soil during 15 to 20 days relative to control.
Experiment [23] has as its system Panonychus citri. Nature of the experiment: Insecticidal activity against Panonychus citri at 500 ppm up to 21 days.
The subject of experiment [24] is Echinochloa crus-galli. Nature of the experiment: Herbicidal activity against Echinochloa crus-galli (barnyard grass) assessed as disease control at 1000 ppm treated in foliage during 15 to 20 days relative to control.
Experiment [25] deals with Panonychus citri. Nature of the experiment: Insecticidal activity against Panonychus citri at 200 ppm up to 21 days.

≈ marks a conversion by molar mass, not a printed value.

For `c1ccc2[nH]c(-c3ccnc4ccccc34)nc2c1`, the MIC in experiment [1], in experiment [2] and in experiment [3] was 100 µg/mL (≈ 408 µM) throughout.

In turn, `c1ccc2nc(-c3nc4ccccc4[nH]3)ccc2c1` registered an MIC in [2] of 100 µg/mL (≈ 408 µM).

For `Clc1ccc2nc(-c3ccccn3)[nH]c2c1`, the Activity in experiment [4] is on record as less than 39%; in [5], more than 80%; in experiment [6] it was less than 39%; in [7], less than 39%; in [8], less than 39%; in experiment [9], less than 39%. The Activity in experiment [10] is recorded as 60%; in experiment [11] it was less than 39%; in experiment [12] it was less than 39%; in experiment [13], less than 39%; in experiment [14], more than 80%; in experiment [15] it was less than 39%. Further, the Activity in experiment [17] was less than 39%; in [18], 60%; in [19], less than 39%; in experiment [21] it was less than 39%; in experiment [22], less than 39%; in [23], 32.5%. In addition, in experiment [24], the Activity is less than 39%. The MIC in experiment [1] is 50 µg/mL (≈ 218 µM); in experiment [2], 100 µg/mL (≈ 435 µM); in experiment [16] it was 50 µg/mL (≈ 218 µM); in experiment [20], 50 µg/mL (≈ 218 µM); in [3], 50 µg/mL (≈ 218 µM).

`Clc1cccc2nc(-c3ccccn3)[nH]c12`: the Activity in [4], in experiment [5], in experiment [6], in experiment [7], in experiment [8] and in experiment [9] was less than 39% in each case. Further, the Activity is 60% in experiment [10]; less than 39% in [11]; less than 39% in experiment [12]; less than 39% in experiment [13]; more than 80% in experiment [14]; less than 39% in experiment [15]. Besides, the Activity is less than 39% in experiment [17]; more than 80% in experiment [18]; less than 39% in [19]; less than 39% in experiment [21]; less than 39% in experiment [22]; 91.5% in experiment [23]. The Activity in [24] is less than 39%.

In the case of `Clc1ccc2sc(-c3ccccn3)nc2c1`, the Activity in experiment [4] was less than 39%; in experiment [5] it was less than 39%; in experiment [6] it was less than 39%; in experiment [7], 60%; in experiment [8], less than 39%; in [9], less than 39%. In addition, the Activity in experiment [10] was less than 39%; in experiment [11], less than 39%; in experiment [12], more than 80%; in [13], 40%; in [14], less than 39%; in experiment [15], less than 39%. The Activity in [17], in experiment [18], in experiment [19], in experiment [21], in experiment [22] and in [24] was less than 39% in each case.

For the molecule `FC(F)(F)c1ccc2sc(-c3ccccn3)nc2c1`, the Activity is recorded as less than 39% in experiment [4]; less than 39% in experiment [5]; less than 39% in experiment [6]; more than 80% in experiment [7]; less than 39% in experiment [8]; less than 39% in [9]. For the same molecule, the Activity is less than 39% in experiment [10]; 60% in experiment [11]; more than 80% in [12]; more than 80% in experiment [13]; less than 39% in [14]; less than 39% in experiment [15]. In addition, the Activity in [17] is reported as less than 39%; in experiment [18] it was less than 39%; in experiment [19], more than 80%; in experiment [21], less than 39%; in experiment [22], less than 39%; in experiment [23], 81.3%. In experiment [24], the Activity is recorded as less than 39%.

For `COc1ccc2sc(-c3ccccn3)nc2c1`, the Activity in experiment [4] is on record as less than 39%; in experiment [5] it was less than 39%; in experiment [6], less than 39%; in experiment [7] it was 40%; in [8], less than 39%; in experiment [9], less than 39%. The Activity in experiment [10] is less than 39%; in [11] it was less than 39%; in experiment [12] it was 60%; in experiment [13], less than 39%; in experiment [14], less than 39%; in experiment [15], less than 39%. The Activity in [17] was 40%; in experiment [18] it was less than 39%; in [19], less than 39%; in experiment [21] it was less than 39%; in experiment [22], less than 39%; in experiment [24], less than 39%.

Turning to `Cc1ccc2nc(-c3ccccn3)[nH]c2c1`, the Activity in experiment [4] is less than 39%; in experiment [5] it was 60%; in experiment [6] it was less than 39%; in experiment [7] it was 40%; in experiment [8], less than 39%; in experiment [9] it was less than 39%. In addition, the Activity in experiment [10] is given as 40%; in experiment [11], less than 39%; in experiment [12] it was less than 39%; in experiment [13] it was 60%; in experiment [14], less than 39%; in experiment [15], less than 39%. Also, the Activity in [17] was less than 39%; in experiment [18] it was 60%; in experiment [19], less than 39%; in experiment [21], less than 39%; in experiment [22] it was less than 39%; in experiment [24], less than 39%. Moreover, the figures for the MIC in experiment [1] and in experiment [3] were 50 µg/mL (≈ 239 µM) and 100 µg/mL (≈ 478 µM), respectively.

In turn, `c1ccc2[nH]c(-c3ccncc3)nc2c1` showed an MIC in experiment [2] of 100 µg/mL (≈ 512 µM).

With `O=[N+]([O-])c1ccc2[nH]c(-c3ccccn3)nc2c1`, the Activity in [4], in [5], in [6], in experiment [7], in [8] and in experiment [9] was less than 39% each time. Also, the Activity is reported as 40% in [10]; less than 39% in experiment [11]; less than 39% in experiment [12]; less than 39% in experiment [13]; less than 39% in experiment [14]; less than 39% in [15]. Besides, the Activity in experiment [17] was less than 39%; in experiment [18], 60%; in experiment [19] it was less than 39%; in [21], less than 39%; in experiment [22], less than 39%; in experiment [24], less than 39%. Further, the MIC in experiment [1] stood at 10 µg/mL (≈ 41.6 µM); in [2], 100 µg/mL (≈ 416 µM); in [16], 50 µg/mL (≈ 208 µM); in experiment [20] it was 50 µg/mL (≈ 208 µM); in [3] it was 50 µg/mL (≈ 208 µM).

As to `c1ccc(-c2nc3ccccc3[nH]2)nc1`, the Activity in experiment [4] is less than 39%; in experiment [5], more than 80%; in experiment [6], less than 39%; in experiment [7] it was less than 39%; in [8], less than 39%; in experiment [9], less than 39%. The Activity is given as 60% in [10]; less than 39% in [11]; less than 39% in experiment [12]; less than 39% in [13]; 60% in [14]; less than 39% in experiment [15]. The Activity in experiment [17], in experiment [18], in experiment [19], in experiment [21], in experiment [22] and in [24] was less than 39% throughout. For the same molecule, the MIC in [2] and in experiment [3] was 100 µg/mL (≈ 512 µM) throughout.

For `OC(c1ccc(Cl)cc1)(c1ccc(Cl)cc1)C(Cl)(Cl)Cl` [DICOFOL], the Activity in [25] is given as 98.3%.

For orientation: MIC means the least concentration at which growth counts as inhibited.
